We go through one compound from patent publication US8895504B2, “Amylin derivatives” (priority 2008, dated 2014).

*1 amine or outer side, *2 acyl side, *3 side chain or, on linkers, in order; H or OH if unused. Where a SMILES comes first, the peptide text is derived from it. Bridges are numbered along the chain shown (N, C = ends). The star is where a group is joined. C20 diacid = O=C(O)CCCCCCCCCCCCCCCCCCC(=O)*; γGlu = O=C(O)[C@H](CCC(=O)[*:2])N[*:1]

Data set [1] in a line: Assay (V) PK - determination of T½ in mini-pig. The data set is classed as in vivo. The settings on record: minipig, sc; terminal plasma half-life, subcutaneous, approx 2 nmol/kg, male Göttingen mini-pigs. A digest of the protocol:
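Male Göttingen mini-pigs (5–12 months, 7–35 kg) got a single s.c. neck injection of approx 2 nmol/kg; plasma sampled via central venous catheter predose to 240 h (some to 288 h). Amylin measured by sandwich ELISA; T½ = ln 2/λz from non-compartmental analysis of individual profiles.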

Another data set deals with food intake. The data set can be described thus: Pharmacological Assay (I) - efficacy testing on appetite, ad libitum fed rat model. It counts as in vivo, Sprague Dawley (SD) rats. The settings on record: 30 nmol/kg vs vehicle, ad libitum fed rats, n=5-7, 0-48 hours. The text has this:
Assays Pharmacological Assay (I)—Experimental Protocol for Efficacy Testing on Appetite with an Amylin Derivative, Using an Ad Libitum Fed Rat Model. Sprague Dawley (SD) rats from Taconic Europe, Denmark are used for the experiments. The rats have a body weight 200-250 g at the start of experiment. The rats arrive at least 10-14 days before start of experiment to allow acclimatization to experimental settings. During this period the animals are handled at least 2 times. After arrival rats are housed individually for one week in a reversed light/dark phase (meaning that lights are off during daytime and on during nighttime) for two weeks. Since rats are normally active and eat their major part of their daily food intake during the dark period, rats are dosed in the morning right before lights are turned off. This set-up results in the lowest data variation and highest test sensitivity. The experiment is conducted in the rats' home cages and rats have free access to food and water throughout the acclimatization period and the experiment period. Each dose of derivative is tested in a group of 5-8 rats. A vehicle group of 6-8 rats is included in each set of testing. Rats are dosed once according to body weight with a 0.01-3 mg/kg solution administered intraperitoneally (ip), orally (po) or subcutaneously (sc). The time of dosing is recorded for each group. After dosing, the rats are returned to their home cages, where they then have access to food and water. The food consumption is recorded individually continuously by on-line registration or manually every hour for 7 hours, and then after 24 h and sometimes 48 h. At the end of the experimental session, the animals are euthanized. The individual data are recorded in Microsoft excel sheets. Outliers are excluded after applying the Grubbs statistical evaluation test for outliers, and the result is presented graphically using the GraphPad Prism program.

Turning to `CC[C@H](C)[C@H](NC(=O)[C@@H]1CCCN1C(=O)CNC(=O)[C@H](Cc1ccccc1)NC(=O)[C@H](CC(N)=O)NC(=O)[C@H](CC(N)=O)NC(=O)[C@H](CO)NC(=O)[C@H](CO)NC(=O)[C@H](Cc1c[nH]cn1)NC(=O)[C@H](Cc1c[nH]cn1)NC(=O)[C@H](CC(C)C)NC(=O)[C@H](Cc1ccccc1)NC(=O)[C@H](CC(N)=O)NC(=O)[C@H](C)NC(=O)[C@H](CC(C)C)NC(=O)[C@H](CCCNC(=N)N)NC(=O)[C@H](CCC(N)=O)NC(=O)[C@@H](NC(=O)[C@H](C)NC(=O)[C@@H]1CSSC[C@H](NC(=O)[C@H](Cc2c[nH]cn2)NC(=O)[C@H](Cc2c[nH]cn2)NC(=O)[C@H](Cc2c[nH]cn2)NC(=O)CC[C@H](NC(=O)CCCCCCCCCCCCCCCCCCC(=O)O)C(=O)O)C(=O)N[C@@H](CC(N)=O)C(=O)N[C@@H]([C@@H](C)O)C(=O)N[C@@H](C)C(=O)N[C@@H]([C@@H](C)O)C(=O)N1)[C@@H](C)O)C(=O)N[C@@H](CC(C)C)C(=O)N1CCC[C@H]1C(=O)N1CCC[C@H]1C(=O)N[C@H](C(=O)N[C@@H](CC(N)=O)C(=O)N[C@H](C(=O)NCC(=O)N[C@@H](CO)C(=O)N[C@@H](CC(N)=O)C(=O)N[C@H](C(=O)N[C@@H](Cc1ccc(O)cc1)C(N)=O)[C@@H](C)O)C(C)C)[C@@H](C)O` [Example 39, N-alpha-[(S)-4-Carboxy-4-(19-carboxynonadecanoylamino)butyryl]-His-His-[His1,His17]-pramlintide] ({C20 diacid-γGlu}-HHHCNTATCATQRLANFLHHSSNNFGPILPPTNVGSNTY-NH2; disulfide 4-9), the half-life in data set [1] was 60 h. Moreover, in the data set with food intake, the “food intake over a period of 48 hours” value was “effectively reducing food intake”.
